Some results are limits rather than exact numbers.

For this experiment, the target named is T1, GPR40 (Homo sapiens, UniProt O14842).
T1 construct: expressed in transfected cells
T1 sequence (O14842 whole entry): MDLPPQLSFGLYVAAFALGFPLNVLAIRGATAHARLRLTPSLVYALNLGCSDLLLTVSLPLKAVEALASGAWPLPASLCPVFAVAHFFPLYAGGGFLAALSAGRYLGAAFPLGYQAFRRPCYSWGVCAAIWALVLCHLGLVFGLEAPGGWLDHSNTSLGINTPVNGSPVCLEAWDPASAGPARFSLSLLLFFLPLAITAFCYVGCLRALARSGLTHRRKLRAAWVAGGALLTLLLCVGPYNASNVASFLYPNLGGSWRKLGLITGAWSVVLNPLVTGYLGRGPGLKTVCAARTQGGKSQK
In words: IP1 accumulation assay (Cisbio IP-One HTRF) in HEK293 cells stably expressing GPR40. The experiment is classed as cell-based. To be noted: HEK293 cells stably expressing GPR40, 37° C. for 2 hours, % Effect relative to AMG-1638 positive control. The protocol: IP1 accumulation assay was used to evaluate the potency of compounds. HEK293 cells stably expressing GPR40 were cultured in 5% CO2 incubator (ThermoFisher) in maintenance media (Dulbecco's modified Eagle's medium with 4.5 g/L of glucose, 10% fetal bovine serum, 100 μg/mL Hygromycin, and Penicillin (100 U/mL)/Streptomycin (100 μg/mL)) till 100% confluency. Cells were harvested freshly, spun down at 300×g for 5 min, and resuspended in pre-warmed 1× stimulant buffer from Cisbio IP-One HTRF Detection kit (Cisbio). Cell density was adjusted to 2.0×10^6 cells/mL. DMSO was used as blank control and AMG-1638 (CAS #: 1142214-62-7) as positive control. Compounds were prepared at 10 mM in DMSO and 5 nL of 3× serially diluted compounds (10 concentrations) were added to each well of the 384-LDV assay plate (Corning) by using ECHO 550 (Labcyte). Five μL of cells in suspension were transferred into each well by using Multidrop Combi Reagent Dispenser (ThermoFisher). Assay plate was then sealed and incubated at 37° C. for 2 hours. IP-d2 reagent and anti-IP1 reagent were prepared following the manual (Cisbio). Five μL of IP1-d2 and then 5 μL of anti-IP1 antibody was added to each well sequentially. Assay plate was incubated at room temperature for 60 min and then read at 665 nm/615 nm on an Envision plate reader (PerkinElmer). The ratio of values obtained at 665 nm and 615 nm was used for calculation of IP1 accumulation: % Effect=(Ratiosample−Ratioblank)/(RatioAMG-1638−Ratioblank)×100. Dose curve was fitted and EC50 of each compound was calculated by using XLFit.
On to `COc1ccc(F)c(-c2ccc(COc3cccc([C@@H](CC(=O)O)C4CC4)c3)cc2C(C)(C)Cn2cc(CCCCCCCCCCCCCCCCCC(=O)O)nn2)c1` [Compound No. 226, (S)-18-(1-(2-(4-((3-(2-carboxy-1-cyclopropylethyl)phenoxy)methyl)-2′-fluoro-5′-methoxy-[1,1′-biphenyl]-2-yl)-2-methylpropyl)-1H-1,2,3-triazol-4-yl)octadecanoic acid], for which the half-maximal effective concentration (EC50) was 50 to 250 nM. The same measure for `COC(=O)CCCCCCCCCCCCCCCCCc1cn(CC(C)(C)c2cc(COc3cccc([C@@H](CC(=O)O)C4CC4)c3)ccc2-c2cc(OC)ccc2F)nn1` [Compound No. 227, (S)-3-cyclopropyl-3-(3-((2′-fluoro-5′-methoxy-2-(1-(4-(18-methoxy-18-oxooctadecyl)-1H-1,2,3-triazol-1-yl)-2-methylpropan-2-yl)-[1,1′-biphenyl]-4-yl)methoxy)phenyl)propanoic acid]: not below 5000 nM; for `C#CCOCC(C)(C)c1cc(COc2cccc([C@@H](CC(=O)O)C3CC3)c2)ccc1-c1cc(OC)ccc1F` [Compound No. 228, (S)-3-cyclopropyl-3-(3-((2′-fluoro-5′-methoxy-2-(2-methyl-1-(prop-2-yn-1-yloxy)propan-2-yl)-[1,1′-biphenyl]-4-yl)methoxy)phenyl)propanoic acid]: 50 to 250 nM. The figure for `CCCCCCn1cc(COCC(C)(C)c2cc(COc3cccc([C@@H](CC(=O)O)C4CC4)c3)ccc2-c2cc(OC)ccc2F)nn1` [Compound No. 229, (S)-3-cyclopropyl-3-(3-((2′-fluoro-2-(1-((1-hexyl-1H-1,2,3-triazol-4-yl)methoxy)-2-methylpropan-2-yl)-5′-methoxy-[1,1′-biphenyl]-4-yl)methoxy)phenyl) propanoic acid] is 250 to 1000 nM; for `COc1ccc(F)c(-c2ccc(COc3cccc([C@@H](CC(=O)O)C4CC4)c3)cc2C(C)(C)COCc2cn(CCCCCCCCCCCCCCCCCC(=O)O)nn2)c1` [Compound No. 230] it is 250 to 1000 nM; for `COC(=O)CCCCCCCCCCCCCCCCCn1cc(COCC(C)(C)c2cc(COc3cccc([C@@H](CC(=O)O)C4CC4)c3)ccc2-c2cc(OC)ccc2F)nn1` [Compound No. 231, (S)-3-cyclopropyl-3-(3-((2′-fluoro-5′-methoxy-2-(1-((1-(18-methoxy-18-oxooctadecyl)-1H-1,2,3-triazol-4-yl)methoxy)-2-methylpropan-2-yl)-[1,1′-biphenyl]-4-yl)methoxy)phenyl)propanoic acid] it is not below 5000 nM. The same measure for `COc1ccc(F)c(-c2ccc(COc3cccc([C@@H](CC(=O)O)C4CC4)c3)cc2C(OCCCCN=[N+]=[N-])C(C)(C)C)c1` (stereo partly drawn) [Compound No. 232, (3S)-3-(3-((2-(1-(4-azidobutoxy)-2,2-dimethylpropyl)-2′-fluoro-5′-methoxy-[1,1′-biphenyl]-4-yl)methoxy)phenyl)-3-cyclopropylpropanoic acid]: 1 to 50 nM; for `CCCCCCc1cn(CCCCCOC(c2cc(COc3cccc([C@@H](CC(=O)O)C4CC4)c3)ccc2-c2cc(OC)ccc2F)C(C)(C)C)nn1` (some centres unmarked) [Compound No. 233]: 1 to 50 nM; for `COc1ccc(F)c(-c2ccc(COc3cccc([C@@H](CC(=O)O)C4CC4)c3)cc2C(OCCCCCn2cc(CCCCCCCCCCCCCCCCCC(=O)O)nn2)C(C)(C)C)c1` (some centres unmarked) [Compound No. 234]: 250 to 1000 nM.

Take `COC(=O)CCCCCCCCCCCCCCCCCc1cn(CCCCCOC(c2cc(COc3cccc([C@@H](CC(=O)O)C4CC4)c3)ccc2-c2cc(OC)ccc2F)C(C)(C)C)nn1` (some centres unmarked) [Compound No. 235]: the 50% effective concentration (EC50) was not below 5000 nM. The same measure for `COc1ccc(F)c(-c2ccc(COc3cccc([C@@H](CC(=O)O)C4CC4)c3)cc2C(OC)C(C)(C)CN=[N+]=[N-])c1` (stereo partly drawn) [Compound No. 236, (3S)-3-(3-((2-(3-azido-1-methoxy-2,2-dimethylpropyl)-2′-fluoro-5′-methoxy-[1,1′-biphenyl]-4-yl)methoxy)phenyl)-3-cyclopropylpropanoic acid]: 1 to 50 nM. In turn, `COc1ccc(F)c(-c2ccc(COc3cccc([C@@H](CC(=O)O)C4CC4)c3)cc2CC(C)(C)CN=[N+]=[N-])c1` [Compound No. 237, (S)-3-(3-((2-(3-azido-2,2-dimethylpropyl)-2′-fluoro-5′-methoxy-[1,1′-biphenyl]-4-yl)methoxy)phenyl)-3-cyclopropylpropanoic acid] showed an EC50 of 1 to 50 nM. The same measure for `CCCCCCn1cc(-c2ccc(OC(F)(F)F)c(CN3CCC([C@H]4CCc5ccc([C@H](C6CC6)[C@H](C)C(=O)O)cc5O4)CC3)c2)nn1` [compound 187, (2S,3R)-3-cyclopropyl-3-((R)-2-(1-(5-(1-hexyl-1H-1,2,3-triazol-4-yl)-2-(trifluoro-methoxy)benzyl)piperidin-4-yl)chroman-7-yl)-2-methylpropanoic acid]: 50 to 250 nM; for `CCCCCCc1cn(-c2ccc(OC(F)(F)F)c(CN3CCC([C@H]4CCc5ccc([C@H](C6CC6)[C@H](C)C(=O)O)cc5O4)CC3)c2)nn1` [compound 188, (2S,3R)-3-cyclopropyl-3-((R)-2-(1-(5-(4-hexyl-1H-1,2,3-triazol-1-yl)-2-(trifluoro-methoxy)benzyl)piperidin-4-yl)chroman-7-yl)-2-methylpropanoic acid]: 1 to 50 nM; for `CCCCCCc1cn(CCc2ccc(OC(F)(F)F)c(CN3CCC([C@H]4CCc5ccc([C@H](C6CC6)[C@H](C)C(=O)O)cc5O4)CC3)c2)nn1` [compound 189, (2S,3R)-3-cyclopropyl-3-((R)-2-(1-(5-(2-(4-hexyl-1H-1,2,3-triazol-1-yl)ethyl)-2-(trifluoro-methoxy)benzyl)piperidin-4-yl)chroman-7-yl)-2-methylpropanoic acid]: 1 to 50 nM.

In the case of `CCCCCCn1cc(COc2ccc(OC(F)(F)F)c(CN3CCC([C@H]4CCc5ccc([C@H](C6CC6)[C@H](C)C(=O)O)cc5O4)CC3)c2)nn1` [compound 190, (2S,3R)-3-cyclopropyl-3-((R)-2-(1-(5-((1-hexyl-1H-1,2,3-triazol-4-yl)methoxy)-2-(trifluoro-methoxy)benzyl)piperidin-4-yl)chroman-7-yl)-2-methylpropanoic acid], the EC50 lay within 50 to 250 nM. The figure for `C#Cc1ccc(OC(F)(F)F)c(CN2CCC([C@H]3CCc4ccc([C@H](C5CC5)[C@H](C)C(=O)O)cc4O3)CC2)c1` [compound 193, (2S,3R)-3-cyclopropyl-3-((R)-2-(1-(5-ethynyl-2-(trifluoromethoxy)benzyl)piperidin-4-yl)-chroman-7-yl)-2-methylpropanoic acid] is 1 to 50 nM. The figure for `C[C@H](C(=O)O)[C@H](c1ccc2c(c1)O[C@H](C1CCN(Cc3cc(N=[N+]=[N-])ccc3OC(F)(F)F)CC1)CC2)C1CC1` [compound 194, (2S,3R)-3-((S)-2-(1-(5-azido-2-(trifluoromethoxy)benzyl)piperidin-4-yl)chroman-7-yl)-3-cyclopropyl-2-methylpropanoic acid] is 1 to 50 nM; for `CCCCCCc1cn(Cc2ccc(OC(F)(F)F)c(CN3CCC([C@H]4CCc5ccc([C@H](C6CC6)[C@H](C)C(=O)O)cc5O4)CC3)c2)nn1` [compound 195, (2S,3R)-3-cyclopropyl-3-((R)-2-(1-(5-((4-hexyl-1H-1,2,3-triazol-1-yl)methyl)-2-(trifluoro-methoxy)benzyl)piperidin-4-yl)chroman-7-yl)-2-methylpropanoic acid] it is 1 to 50 nM. The figure for `CCCCCCCCCCc1ccc(OC(F)(F)F)c(CN2CCC([C@H]3CCc4ccc([C@H](C5CC5)[C@H](C)C(=O)O)cc4O3)CC2)c1` [compound 205, (2S,3R)-3-cyclopropyl-3-((R)-2-(1-(5-decyl-2-(trifluoromethoxy)benzyl)piperidin-4-yl)chroman-7-yl)-2-methylpropanoic acid] is 50 to 250 nM.

`COc1ccc2cc(CN=[N+]=[N-])oc2c1CN1CCC([C@H]2CCc3ccc([C@H](C4CC4)[C@H](C)C(=O)O)cc3O2)CC1` [compound 207, (2S,3R)-3-((R)-2-(1-((2-(azidomethyl)-6-methoxybenzofuran-7-yl)methyl)-piperidin-4-yl)chroman-7-yl)-3-cyclopropyl-2-methylpropanoic acid] displayed a 50% effective concentration (EC50) not below 5000 nM. The figure for `CCCCCCc1cn(Cc2cc3ccc(OC)c(CN4CCC([C@H]5CCc6ccc([C@H](C7CC7)[C@H](C)C(=O)O)cc6O5)CC4)c3o2)nn1` [compound 209, (2S,3R)-3-cyclopropyl-3-((R)-2-(1-((2-((4-hexyl-1H-1,2,3-triazol-1-yl)methyl)-6-methoxybenzofuran-7-yl)methyl)piperidin-4-yl)chroman-7-yl)-2-methylpropanoic acid] is 1000 to 5000 nM; for `C[C@H](C(=O)O)[C@H](c1ccc2c(c1)O[C@@H](C1CCN(Cc3cc(-c4cn(CCCCCCCCCCCCCCCCCC(=O)OCc5ccccc5)nn4)ccc3OC(F)(F)F)CC1)CC2)C1CC1` [compound 210, (2S,3R)-3-((R)-2-(1-(5-(1-(18-(benzyloxy)-18-oxooctadecyl)-1H-1,2,3-triazol-4-yl)-2-(trifluoromethoxy)benzyl)piperidin-4-yl)chroman-7-yl)-3-cyclopropyl-2-methylpropanoic acid] it is 50 to 250 nM.

For orientation: EC50 means the concentration that produces a half-maximal response. Higher therefore signals a less potent agent.

The record behind these values is US20240002354A1, “ANTIDIABETIC COMPOUNDS AND COMPOSITIONS” (REZUBIO PHARMACEUTICALS CO., LTD, priority 2020, published 2024).
